Experimental findings from PMC6010093, “α-Glucosidase inhibitory activity and cytotoxic effects of some cyclic urea and carbamate derivatives” (Journal of Enzyme Inhibition and Medicinal Chemistry, 2017) are described below.

Assay [1] deals with HeLa, cervix adenocarcinoma cell line. Briefly: MTT cytotoxicity assay, HeLa. Particulars: Homo sapiens, 72 h exposure, mean ± standard deviation. It counts as cell-based. On the technique in general: Tetrazolium dyes change colour on reduction, which living cells bring about.
The test system of assay [2] is A549, non-small cell lung carcinoma cell line. Description: MTT cytotoxicity assay, A549. It counts as cell-based. Particulars: Homo sapiens, 72 h exposure, mean ± standard deviation.
The subject of assay [3] is MDA-MB-453 human breast cancer cell line. Description: MTT cytotoxicity assay, MDA-MB-453. The format is cell-based. To be noted: 72 h exposure, mean ± standard deviation.
In a further assay the test system is HeLa cells. Briefly: Morphological evaluation of cell death (acridine orange/ethidium bromide staining, fluorescence microscope). It counts as cell-based, human. As to the method: After 24 h of seeding 80 000 HeLa cells per well, they were treated with compound dilutions of IC50 and 2 × IC50 in control only nutrient medium was added. After another 24 h of incubation cells were stained with acridine orange AO and ethidium bromide EB (3 μg/mLAO +10 μg/mL EB in PBS), then visualized under a fluorescence microscope (Carl Zeiss, Oberkochen, Germany) PALM MicroBeam with Axio Observer.Z1 using AxioCam MRm (filters Alexa 488 and 568), as described in literature.
Morphological changes were observed after cells were stained with acridine orange and ethidium-bromide. Acridine orange can penetrate into the living cells and emits green fluorescence, while ethidium-bromide enters the cells after cell membrane damage and emits red fluorescence. […] Observed control cells are with unchanged morphology, stained green.

Setting [4] is: 24 h treatment with 2 × IC50 concentration of compound.
Setting [5] is: 24 h treatment with IC50 dilution of compound.

Molecules are shown by their SMILES. “Also recorded” adds a separate entry of the source.

The IC50 is the concentration that gives 50% inhibition. The low end stands for inhibition by little substance, the high end for a need for much substance. As to `COc1cc(NC(=O)OCc2ccccc2)cc(OC)c1OC` [Compound 12, benzyl (3,4,5-trimethoxyphenyl)carbamate], the IC50 in assay [1] is 139 ± 8.28 µM; in assay [2], 180 ± 2.57 µM; in assay [3] it was 108 ± 4.95 µM. The “Morphological changes of HeLa cells (cell death type)” value was “necrotic changes” in the assay on HeLa cells (setting [4]) and “late apoptotic signs; also recorded: apoptosis occurred” in the assay with HeLa cells (setting [5]).
The matching figures for `COC(=O)Nc1cc(OC)c(OC)c(OC)c1` [Compound 11]: 194.4 ± 1.44 µM, 200 ± 2.37 µM, 164 ± 3.93 µM, “necrotic changes” and “late apoptotic signs; also recorded: apoptosis occurred”.
For `CC(C)(C)OC(=O)N1CCC(NC(=O)OCc2ccccc2)CC1` [Compound 8], in that order: 158 ± 6.04 µM, 155.8 ± 0.7 µM, 112 ± 4.91 µM, “necrotic changes” and “late apoptotic signs; also recorded: apoptosis occurred”.
